Results published in patent US8334371B2, “Lactic acid bacteria-derived double-stranded RNA” (Kikkoman Corporation, priority 2007, dated 2012).

Test system: bone marrow-derived dendritic cells
Assay: Promotion of interferon β production from bone marrow-derived dendritic cells (PBL interferon β assay kit)
Type: cell-based, mouse
Method: In addition, measurement was also carried out on interferon β, which has been reported to be involved in the production of interleukin 12. Activity promoting production of interferon β from bone marrow-derived dendritic cells (after culturing for 6 hours using an interferon β assay kit (PBL)) was as shown in FIG. 8.
At this time, interferon […], which has been reported to be involved in interleukin 12 production, was also measured.
(§1) Bone marrow-derived dendritic cells were prepared in the same manner as Example 2. Synthetic RNA was added to the bone marrow-derived dendritic cells followed by co-culturing for 6 hours in a 5% CO2 incubator at 37° C. Interferon β production promoting activity was measured using an interferon β assay kit manufactured by PBL.
as §1, with “for 24” for “for 6”, “using the” for “using an”

**Q.** For “DSR1: synthetic double-stranded RNA, 46 mer, SEQ ID NO. 5, sequence cloned from Th221 double-stranded RNA fraction (AAATTTTCAAAAACCTGTTTTGCTTCTTCTAAAAATCCAATTGAAA; listed as DNA, chemistry not given here; listed as Tetragenococcus halophilus)”, which “interferon β production promoting activity” value (culturing for 6 hours, concentration response) is on record?
**A.** The value was “increased dependent on the concentration”.

**Q.** And the “interferon β production promoting activity” value (dendritic cells from TLR3-knockout mice vs wild type, 6 hours)?
**A.** The value was “decreased”.

B1: DSR2: synthetic double-stranded RNA, 119 mer, SEQ ID NO. 6, made by in vitro transcription and annealing (nucleic acid, listed as Tetragenococcus halophilus)
chain: AAAAAATTACCTTTTTCTATTCGTGAGAAAATTTCTCAAGCCGACAAGTATCATAAAAAATTTGCTTTTGAACACTTTTTGAAGGTGTTTCTCTATGGCATCGATCATGAGTGTGAAAG
modifications: RNA, all phosphodiester, T or U not given here; further chemistry not fully specified
notes: 6, made by in vitro transcription and annealing
**Q.** How did the “interferon β production from bone marrow-derived dendritic cells” value (co-culturing for 24 hours) turn out when B1 was run?
**A.** The value was “indicated to be produced”.
